The results in this text go back to paper PMC5640650, “NatD promotes lung cancer progression by preventing histone H4 serine phosphorylation to activate Slug expression” (Nature Communications, 2017).

Data set [1] deals with H1299 cells. The data set is described as follows: qPCR and western blot of EMT and proliferation genes, H1299 cells. The class given is cell-based, human. From the text: Fig. 4 Silencing NatD suppresses cancer cell EMT by downregulating Slug. a Representative phase contrast images of Scr and NatD-KD H1299 cells treated with TGF-β1. Data are representative of three independent experiments. Scale bar, 100 μm. b Quantitative real-time PCR analysis of mRNA levels of indicated key EMT-related genes in Scr and NatD-KD H1299 cells normalized to GAPDH in the absence or presence of TGF-β1. Results are shown as mean ± s.d. of three independent experiments. Two-tailed Student’s t-test was used. **P < 0.01 or *P < 0.05 compared with the indicated control. c Western blot analysis of indicated protein levels in Scr and NatD-KD H1299 cells in the absence or presence of TGF-β1. GAPDH served as a loading control. Data are representative of three independent experiments. d Immunofluorescence analysis of Scr and NatD-KD H1299 cells in the absence or presence of TGF-β1 stained for E-cadherin and N-cadherin. Data are representative of three independent experiments. Scale bar, 20 μm. Migration (e, top) and invasion (f, top) of Scr cells, NatD-KD cells, and NatD-KD cells with enforced Slug expression (NatD-KD + Slug). (bottom panels) Cells were counted in at least four random microscope fields (×100 magnification) for the corresponding assays; migration and invasion are expressed as a percentage of control. Results are shown as mean ± s.d. of three independent experiments. Two-tailed Student’s t-test was used. **P < 0.01 compared with the indicated control. g Quantitative real-time PCR analysis of the mRNA levels of NatD and indicated key EMT-related genes (normalized to GAPDH) in Scr cells, NatD-KD cells, and NatD-KD + Slug cells. Results are shown as mean ± s.d. of three independent experiments. Two-tailed Student’s t-test was used. **P < 0.01 or *P < 0.05 compared with Scr or indicated control. h Western blot analysis of indicated protein levels in Scr cells, NatD-KD cells, and NatD-KD + Slug cells. GAPDH served as a loading control. Data are representative of three independent blots. i Pearson correlation scatter plot of the H score of Slug and NatD in human lung carcinoma (n = 147); r = 0.6672, P < 0.0001
Cellular proteins were extracted by RIPA lysis buffer at high salt concentration (420 mM NaCl), and western blot analysis was performed in accordance with standard protocols. Scans of enhanced chemiluminescence (ECL) films showing uncropped blots are presented in Supplementary Fig. 10. The following antibodies were used for western blotting: NatD (Abcam; ab106408, 1:1000), GAPDH (MBL International; M171-3, 1:5000), Vimentin (BD Biosciences; 550513, 1:1000), E-cadherin (BD Biosciencs; 610181, 1:1000), N-cadherin (Abcam; ab76057, 1:1000), Slug (Abcam; ab27568, 1:500), Zeb1 (ABclonal; A5600, 1:1000), Zeb2 (Abcam; ab138222, 1:500), Twist1 (ABclonal; A7314, 1:1000), Snail (Santa Cruz Biotechnology; sc-271977, 1:500), Histone H4 (PTM Biolabs; PTM-1004, 1:2000), Histone H3(Genscript; A01502, 1:1000), H4K5ac (Millipore; CS204381, 1:1000), H4K8ac (Millipore; CS204357, 1:1000), H4K12ac (Millipore; 06-1352, 1:1000), H4R3me2a (Active Motif; 39705, 1:1000), H4R3me2s (Abcam; ab5823, 1:1000), H4S1ph (Abcam; ab14723, 1:1000), CK2α (Abcam; ab70774, 1:2000), Lamin A/C (Genscript; A01455, 1:2000), and Hsp70 (Genscript; A01236, 1:1000). Peptide pulldown assays were performed according to standard protocols, [44]. Briefly, we coupled streptavidin beads to 2 μg C-terminal biotin-tagged 31-mer N-terminal peptides of histone H4 and to acetylated H4 (Nt-ac-H4), as well as to C-terminal biotin-tagged 20-mer N-terminal peptides of non-acetylated histone H3. The resulting streptavidin-coupled peptides were incubated with H1299 cellular extracts prepared with high salt extraction (420 mM NaCl). We eluted specifically bound protein from stringently washed beads, separated the samples by SDS-PAGE, and visualized proteins by western blot with anti-CK2α antibody. […]
On the technique in general: Quantitative PCR measures a nucleic acid by following its amplification.

Data set [2] deals with H1299 cells. The data set is described as follows: TGF-β1-induced EMT experiment (morphology), H1299 cells. The class given is cell-based, human. Conditions: TGF-β1-treated NatD knockdown H1299 cells. An excerpt: Fig. 4 Silencing NatD suppresses cancer cell EMT by downregulating Slug. a Representative phase contrast images of Scr and NatD-KD H1299 cells treated with TGF-β1. Data are representative of three independent experiments. Scale bar, 100 μm. b Quantitative real-time PCR analysis of mRNA levels of indicated key EMT-related genes in Scr and NatD-KD H1299 cells normalized to GAPDH in the absence or presence of TGF-β1. Results are shown as mean ± s.d. of three independent experiments. Two-tailed Student’s t-test was used. **P < 0.01 or *P < 0.05 compared with the indicated control. c Western blot analysis of indicated protein levels in Scr and NatD-KD H1299 cells in the absence or presence of TGF-β1. GAPDH served as a loading control. Data are representative of three independent experiments. d Immunofluorescence analysis of Scr and NatD-KD H1299 cells in the absence or presence of TGF-β1 stained for E-cadherin and N-cadherin. […] (bottom panels) Cells were counted in at least four random microscope fields (×100 magnification) for the corresponding assays; migration and invasion are expressed as a percentage of control. […] Two-tailed Student’s t-test was used. **P < 0.01 compared with the indicated control. g Quantitative real-time PCR analysis of the mRNA levels of NatD and indicated key EMT-related genes (normalized to GAPDH) in Scr cells, NatD-KD cells, and NatD-KD + Slug cells. […]

Data set [3] concerns LLC cells. The data set is described as follows: Transwell migration and invasion assay, LLC cells. It is filed as cell-based, murine. The conditions noted are these: LLC cells in vitro, vs Scr.

Regarding “NatD-KD2: Human NatD shRNA KD2: 5′-GGTTGAATGTCTCCATTGA-3′, lentiviral (shRNA lentiviral)”, in data set [1] (basal, knockdown vs Scr), the “expression of E-cadherin” value is reported as “increased the expression”; the “expression of N-cadherin and Vimentin” value is “reduced the expression”; the “expression of Slug” value is on record as “significantly repressed”; the “expression of Twist1, Snail, Zeb1, or Zeb2” value is recorded as “not changed”. For the same substance, the “changes of E-cadherin, N-cadherin, Vimentin and Slug expression with TGF-β1” value in data set [1] (presence of TGF-β1 relative to basal) is “blocked changes of expression levels”. Also, the “expression of proliferation- and cell cycle-related genes (except CCND2)” value in data set [1] (qPCR, vs Scr) is “did not affect”. Besides, in data set [2], the “morphology on TGF-β1 treatment, NatD knockdown cells” value is reported as “mostly retained their rounded epithelial morphology”. The “migratory and invasive capabilities” value in data set [3] is listed as “significantly decreased”.
